# Assay results from patent publication EP0969013B1, “Peptides for inhibiting HPV E7 proteins” (Deutsches Krebsforschungszentrum Stiftung des öffentlichen …, priority 1998, dated 2003).
# Peptide text beside a SMILES is read from it.
# Key:
# Assay type in all cases: cell-based
# [1] = tested on: E7/2 cells; assay: Apoptosis of E7/2 cells (propidium iodide, FACscan); settings: 10 µM - 200 µM penetratin-fused synthesized peptide, 1 hour to 72 hours
# Protocol: 24 hours after the transfection, the cells are fixed and stained using propidium iodide. The cells are analyzed in a FACscan by measuring the fluorescence caused by propidium iodide. Apoptotic nuclei are shown as nuclei having a DNA content of less than 2N. The amount of apoptotic nuclei is determined in comparison with normal nuclei.
# • (A) Peptide No. 732 is chemically synthesized with a leader attached to the NH2 end and supporting the incorporation into cells. It is penetratin and originates from Drosophila antennapedia. Thus, peptide No. 732 is available as fusion polypeptide and has the following sequence: [formula] Cells are used in which HPV16 E7 is expressed and whose growth depends thereon. Such cells are e.g. E7/2 cells. They are transfected with 10 µM - 200 µM of the synthesized peptide No. 732. Growth rate, apoptosis and cell cycle profiles of the cells are determined 1 hour to 72 hours after the transfection. The former is effected by determining the cell number. […] As to the latter test, the cell DNA is stained with propidium iodide and its content is determined in a FACscan. On the basis thereof, the cell cycle profile is assessed by means of the CellQuest program (Schulze, A. et al., Proc. Natl. Acad. Sci, U.S.A. 92, (1995), 11264-11268), the number of cells in the S phase being taken as a marker for the cell proliferation. […]
# [2] = tested on: E7/2 cells; assay: Cell cycle profile of E7/2 cells (propidium iodide, FACscan, CellQuest); settings: 10 µM - 200 µM penetratin-fused synthesized peptide, 1 hour to 72 hours, marker for cell proliferation
# Protocol: (§1) • (A) Peptide No. 732 is chemically synthesized with a leader attached to the NH2 end and supporting the incorporation into cells. It is penetratin and originates from Drosophila antennapedia. Thus, peptide No. 732 is available as fusion polypeptide and has the following sequence: [formula] Cells are used in which HPV16 E7 is expressed and whose growth depends thereon. Such cells are e.g. E7/2 cells. They are transfected with 10 µM - 200 µM of the synthesized peptide No. 732. Growth rate, apoptosis and cell cycle profiles of the cells are determined 1 hour to 72 hours after the transfection. The former is effected by determining the cell number. As regards the second test, reference is made to Example 2 (A). As to the latter test, the cell DNA is stained with propidium iodide and its content is determined in a FACscan. On the basis thereof, the cell cycle profile is assessed by means of the CellQuest program (Schulze, A. et al., Proc. Natl. Acad. Sci, U.S.A. 92, (1995), 11264-11268), the number of cells in the S phase being taken as a marker for the cell proliferation. […] For this purpose, the BamHI/NdeI fragment (cf. Example 1) of pJM-1 is inserted in the vector pET 19b (Novagen company) so as to obtain the vector pH6-732. Thereafter, cleavage is carried out by means of Ndel and a TAT-cDNA of HIV-1 (Vives, E. et al., J. Biol. Chem. 272, (1997), 16010-16017) is inserted. […]
# [3] = tested on: E7/2 cells; assay: Growth rate of E7/2 cells (cell number); settings: 10 µM - 200 µM penetratin-fused synthesized peptide, 1 hour to 72 hours
# Protocol: as §1
smiles,measurement,setting,value
CC[C@H](C)[C@H](NC(=O)[C@H](CCCCN)NC(=O)[C@H](CCCCN)NC(=O)[C@H](Cc1c[nH]c2ccccc12)NC(=O)[C@H](CCCCN)NC(=O)[C@H](CCSC)NC(=O)[C@H](CCCNC(=N)N)NC(=O)[C@H](CCCNC(=N)N)NC(=O)[C@H](CC(N)=O)NC(=O)[C@H](CCC(N)=O)NC(=O)[C@H](Cc1ccccc1)NC(=O)[C@H](Cc1c[nH]c2ccccc12)NC(=O)[C@@H](NC(=O)[C@H](CCCCN)NC(=O)[C@@H](NC(=O)[C@H](CCC(N)=O)NC(=O)[C@@H](N)CCCNC(=N)N)[C@@H](C)CC)[C@@H](C)CC)C(=O)N[C@@H](C)C(=O)N[C@@H](C)C(=O)N[C@@H](CCCNC(=N)N)C(=O)N[C@@H](CC(C)C)C(=O)N[C@@H](CCCNC(=N)N)C(=O)N[C@@H](CC(C)C)C(=O)N[C@@H](CCCNC(=N)N)C(=O)N[C@@H](CS)C(=O)NCC(=O)N[C@H](C(=O)N[C@H](C(=O)N[C@@H](CC(C)C)C(=O)N[C@@H](CC(C)C)C(=O)N[C@@H](CC(C)C)C(=O)N[C@@H](CS)C(=O)N[C@H](C(=O)N[C@@H](CC(C)C)C(=O)N[C@@H](CC(=O)O)C(=O)N[C@@H](CC(C)C)C(=O)O)[C@@H](C)O)[C@@H](C)CC)C(C)C [peptide No. 732] (H-RQIKIWFQNRRMKWKKIAARLRLRCGVILLLCTLDL-OH),apoptosis frequency,[1],lowers the apoptosis frequency
same,number of cells in the S phase,[2],reduces the number of cells in the S phase
same,growth rate,[3],reduces the growth rate
